For data set [1], the system named is rat Cyp1A1 promoter (Cyp1A1-SEAP reporter pCW2) in Hepa-C1C7 cells. Briefly: 3MC induced Cyp1A1-SEAP vector (pCW2) expression in transfected cells, SEAP activity in medium. Type of data set: cell-based. Conditions: 48 hours after induction. The protocol:
The sequence coding for 55.5 kD secreted alkaline phosphatase (SEAP), a truncated form of placental alkaline phosphatase enzyme that lacks the GPI anchor, was excised from pSEAP2-Basic (Clonetech) by first converting a BsmI restriction site by removing 3′-overhanging sequences and addition of BglII linker, then excision with BglII.
Hepa-C1C7 cells (cultured in DMEM supplemented with 10% FCS, 2 mM 1-glutamine, at 5% CO2) were transfected with pCW2 either transiently or stably (in conjunction with pSVNeo) using the calcium phosphate co-precipitation method. Briefly, 5 μg of plasmid (+1 μg pSVNeo for stable transfections) was mixed with calcium chloride and HEPES buffered saline to form a calcium phosphate-DNA precipitate which was left incubating with the cells for 5 hours. The medium was then replaced with fresh growth medium or with selection medium (growth medium supplemented with 400 μg/ml G418, for stable transfections). Transiently transfected cells were plated into 6 well plates and were incubated with increasing doses of 3MC dissolved in culture medium. For stable transfections, once individual colonies could be identified on the plates the colonies were pooled and incubated with 2 μg/ml 3MC. Forty eight hours after induction with 3MC the medium was assayed for SEAP activity.
SEAP activity was determined using the “SEAP reporter Gene Assay, chemiluminescent” (Roche). […]

For data set [2], the system named is Cyp1A1-SEAP transgene (rat Cyp1A1 promoter). In words: 3MC induced Cyp1A1-SEAP vector expression in transgenic mice, SEAP activity in urine and blood.
Protocol: 3MC was administered to female and male mice (of at least 8 weeks of age) as a suspension in Mazola brand corn oil by i.p. injection. Test animals were either transgenic or non-transgenic age-matched animals with the same genotype were i.p. injected once every 24 hours with either 40 mg/kg or 0.4 mg/kg body weight 3-methylcholanthrene (3MC) in maize oil for three consecutive injections. Control animals were injected with an equal volume of carrier corn oil only. All animals were killed by cervical dislocation 24 hours following the final dose.
Samples of the liver and kidney were removed, washed once in phosphate buffered saline and then homogenised in HB buffer (140 mM NaCl, 50 mM Tris-HCl pH 7.5, 1 mM EDTA, 1% w/v Triton X-100) using a dounce glass homogeniser until a smooth solution was formed. Insoluble proteins were removed by centrifugation at 13000 rpm for 5 minutes and the cleared supernatant was assayed for protein content using the Pierce protein determination kit. For each tissue a final concentration of 0.8 mg/ml was used in the SEAP assay.
Urine and blood samples were centrifuged at 5000 rpm for 5 minutes to remove any solid waste (from the urine) or coagulated cells (from the blood) and were assayed for SEAP activity immediately. Urine was used undiluted in the assay, whereas blood samples were diluted 1:100 and 1:500 with distilled water prior to the SEAP assay. SEAP activity was assayed as described in example 2.
Data set [3] has as its system SFN-hCG(myc) reporter transgene (stratifin promoter) in PC3 xenograft tumours. Briefly: Induced SFN-hCG(myc) transgene expression from xenografted PC3 cell line in vivo, urinary hCG(myc) by sandwich ELISA. On the set-up: species or system nude mice. To be noted: single i.p. camptothecin 15 mg/kg; urine 24 hours after administration; versus vehicle only; FIG. 7. The procedure: The SFN-hCG(myc)-Amp reporter construct generated as described under example 5, was transfected into PC3 cells on 6-well tissue culture plates using FuGene reagent (Roche, Lewes, East Sussex). Construct DNA (equivalent to 1 μg/well) was added to FuGene reagent (3 μl/well) and made up to 100 μl/well with serum free medium. The medium in which the cells were growing was aspirated off and replaced with 100 μl of the above mixture per well. After 24 hours the cells were trypsinised and transferred to 10 cm tissue culture dishes (one well of a six well plate per 10 cm dish). The cells were allowed to grow on these dishes for 7 days prior to selection. […]
The study consisted of 4 groups in total, each containing 4 animals. […] Tumour growth was measured twice-weekly following cell implantation until tumours reached 2-5 mm in diameter. Tumour volume (V) was calculated using the formula: V= 4/3π((d1+d2)/4)^3, where d=mean diameter (n=2)
Treatment began 5 weeks after tumour implantation. […] Quantities of bound HRP were then determined by reaction with tetramethylbenzidine (TMB) and absorbance measurement at 450 nm. No hCG(myc) was detected in the urine of mice carrying xenograft tumours resulting from injection of wild-type PC3 cells. However, hCG(myc) was detected in the urine of mice carrying xenograft tumours resulting from injection of PC3 cells transfected with the SFN-hCG(myc) reporter construct.

As to `Cc1ccc2cc3c(ccc4ccccc43)c3c2c1CC3` [3MC, 3-methylcholanthrene], the “SEAP activity in medium (3MC induction of pCW2)” value is recorded as “induction” in data set [1] (pCW2 stably-transfected into Hepa1 cells, 2 μg/ml 3MC, FIG. 3) and “induction” in data set [1] (pCW2 transiently-transfected into Hepa1 cells, increasing doses of 3MC, FIG. 2). Moreover, the “SEAP in urine of CYS31 transgenic mice” value in data set [2] (0.4 mg/kg 3MC i.p., FIG. 6) is given as “appearance of SEAP in urine”. The “Cyp1a1-SEAP activity detected in urine and blood” value in data set [2] (40 mg/kg 3MC i.p. once every 24 hours, three injections, 3 out of 4 founder transgenic mice analysed (CYS48, CYS50, CYS31, CYS74), FIG. 4) is reported as “induction”. For the same molecule, the “SEAP activity detected in the urine of transgenic mice” value in data set [2] (3MC i.p., FIG. 5) is on record as “induced SEAP activity”.

Take `CC[C@@]1(O)C(=O)OCc2c1cc1n(c2=O)Cc2cc3ccccc3nc2-1` [camptothecin]: the “urinary hCG(myc) concentration (absorbance at 450 nm)” value in data set [3] is “increased urinary hCG(myc)”.

(Values after US20070217999A1, “Excretable Reporter Systems” (Roslin Institute (Edinburgh), priority 2003, published 2007).)
